# Test results: patent publication EP0120757A1, “Compositions in the form of microglobules consisting of partially quaternised, tertiary polyamines, and containing hydrophobic compounds, their preparation and application” (Etablissement Public dit: CENTRE NATIONAL DE LA RECHERCHE …, priority 1983, dated 1984)
# Legend:
# [1] = Solubilisation of griseofulvine in aqueous Q-P(TDAE)19 microglobule solution, assayed by circular dichroism at 294 nm after filtration; type: physicochemical; details: Example 5, Q-P(TDAE)19 TN = 2,5 x 10^-2 N, per ml of filtrate
# Description: Les essais sont effectués à partir d'une solution basique de Q-P(TDAE)19 (TN= 2,5 x 10^-2 N). Des échantillons contenant 5ml de cette solution basique sont ajustés aux pH correspondant aux différents β par addition de HC1 0,5N).
# 7mg de griseofulvine en poudre sont ajoutés à chaque échantillon. On laisse soniquer pendant 5 minutes et on filtre les mélanges sur filtre millipore (0,45 micromètre). Les filtrats limpides sont conservés de la même façon que pour les exemples 1 et 2. Le dosage de la griseofulvine solubilisée est effectué dans le milieu solvant eau-acétonitrile : 20/80, V/V. On prélève dans chaque essai, 1ml de filtrat qui est dilué à 5ml par de l'acétonitrile. Les ellipticités des différentes solutions sont mesurées à λ = 294nm et comparées à des solutions standard de griseofulvine dissoutes dans le même milieu solvant.
# Le tableau suivant donne les quantités de griseofulvine dissoute (en microgrammes par ml de filtrat) en fonction du pH et du degré de protonation β . La solubilité de la griseofulvine dans l'eau est de l'ordre de 13 à 15 microgrammes par ml.
# [2] = Solubility of the hydrophobic drug in water without polymer
# [3] = Solubilisation of progestérone in aqueous Q-P(TDAE)19 microglobule solution, assayed by circular dichroism at 285 nm after filtration; type: physicochemical; details: for progestérone (microgrammes/ml): per ml of filtrate; for quantité de progestérone dissoute: Example 3, Q-P(TDAE)19 TN = 0,125 N, pH = 7,7, β = 0,06
# Description: A) Les essais sont effectués à partir d'une solution basique de poly(diéthylaminométhyl thiiranne) quaternisée à 19% Q-P(TDAE)19 de formule [drawing 4] X étant un anion (par exemple un anion halogénure tel que chlorure ou bromure), à une concentration TN = (2,5+ 0,1)x 10^-2 N (polymère = 3,77mg de polymère sous forme basique par ml de solution).
# Cette solution est obtenue de la façon suivante: • 270mg de chlorhydrate de Q-P(TDAE)19 sont dissous dans 10ml d'eau distillée, puis passés sur une résine échangeuse d'anions (BIO-RAD AG 1-x4-20-50 mesh-) sous forme OH et récupérés dans une fiole jaugée de 50ml.
# Des échantillons contenant 5m1 de cette solution basique sont ajustés, par addition de HC1 0,5N, aux pH correspondant à différentes valeurs du degré de protonation apparent de la fonction amine tertiaire résiduelle dans le domaine 0 < β< 1. On ajoute 5mg de progestérone en poudre à chaque échantillon et les mélanges sont soit soniqués pendant 5 minutes soit agités pendant 48 heures.
# Après dissolution, chaque échantillon est filtré sur filtre millipore (0,45 micromètres). Les filtrats sont clairs et limpides. Le système "véhicule-drogue" peut être conservé de deux façons différentes: • - en solution, pendant quelques mois au réfrigérateur • - sous forme solide, en lyophilisant les filtrats et en les conservant sous vide. Le filtrat lyophilisé se solubilise rapidement en solution aqueuse.
# Le dosage de la progestérone solubilisée ne peut être fait que par extraction de cette dernière des microémulsions. Cette extraction est obtenue par éclatement des véhicules globulaires dans un mélange filtrat-éthanol absolu dans le rapport V/V : 20/80. 1ml de chaque filtrat est dilué à 5ml par addition d'éthanol. Les différents filtrats présentent dans la région 350-250nm des bandes dichrolques caractéristiques de la progestérone. Le signal de dichroisme circulaire à λ = 285nm est utilisable pour évaluer la quantité de progestérone présente dans chaque filtrat par comparaison avec les ellipticités de solutions standard de progestérone dissoute dans le même milieu solvant.
# Le tableau suivant donne les quantités de progestérone solubilisée (en microgramme par ml de filtrat) en fonction du pH et du degré de protonation β pour chaque essai.
# On opère comme à l'exemple 1 mais les essais sont effectués à partir d'une concentration TN = 0,15N de Q-P(TDAE)19 sous forme basique. Des échantillons contenant 2ml de cette solution sont ajustés à différents β par addition de HC1 N et additionnés de 5mg de progestérone. Après sonication pendant 5 minutes, les mélanges sont filtrés sur filtre millipore (0,45 micromètre). Le dosage de la progestérone solubilisée est fait comme précédemment. 0,2ml de chaque filtrat sont dilués à 2ml par de l'éthanol absolu. Les ellipticités sont mesurées â λ = 285nm et comparées aux solutions standard de progestérone effectuées dans les mêmes conditions.
# Le tableau suivant donne les quantités de progestérone solubilisée (en microgrammes par ml de filtrat) en fonction du pH et du degré de protonation S.
# Deux essais sont réalisés dans les mêmes conditions: concentration en polymère, β et pH identiques mais on ajoute au deuxième essai, du chlorure de sodium de telle façon que la solution soit à 0,9X en NaCl.
# Deux échantillons contenant 2m1 de solution basique de Q-P(TDAE)19 (TN = 0,125 N) sont ajustés à pH = 7,7 et à β= 0,06 par addition de 0,06ml de HCl N. Dans le deuxième échantillon, on ajoute 18mg de NaCl. 5mg de progestérone sont additionnés à chaque échantillon. Les mélanges sont soniqués pendant 5 minutes. Le protocole de filtration et de dosage de la progestérone solubilisée est le même qu'à l'exemple 2.
compound,measurement,setting,value
COC1=CC(=O)C[C@@H](C)[C@]12Oc1c(Cl)c(OC)cc(OC)c1C2=O [griseofulvine],griseofulvine (microgrammes/ml),"[1]; essai 1, pH 7,6, β 0,02",47 microgrammes/ml
same,griseofulvine (microgrammes/ml),"[1]; essai 2, pH 7,08, β 0,093",43 microgrammes/ml
same,griseofulvine (microgrammes/ml),"[1]; essai 3, pH 7,0, β 0,185",36 microgrammes/ml
same,griseofulvine (microgrammes/ml),"[1]; essai 4, pH 6,95, β 0,26",30 microgrammes/ml
same,griseofulvine (microgrammes/ml),"[1]; essai 5, pH 6,95, β 0,32",26 microgrammes/ml
same,griseofulvine (microgrammes/ml),"[1]; essai 6, pH 6,95, β 0,42",22 microgrammes/ml
same,griseofulvine (microgrammes/ml),"[1]; essai 7, pH 6,83, β 0,51",18 microgrammes/ml
same,griseofulvine (microgrammes/ml),"[1]; essai 8, pH 6,67, β 0,673",15 microgrammes/ml
same,griseofulvine (microgrammes/ml),"[1]; essai 9, pH 6,20, β 0,89",15 microgrammes/ml
same,griseofulvine (microgrammes/ml),"[1]; essai 10, pH 4,5 à 4,6, β 1",15 microgrammes/ml
same,solubility,[2],13 to 15 µg/mL
progestérone,progestérone (microgrammes/ml),"[3]; Example 1, Q-P(TDAE)19 TN = 2,5 x 10^-2 N, essai 1, pH 7,5, β 0,07",75 microgrammes/ml
same,progestérone (microgrammes/ml),"[3]; Example 1, Q-P(TDAE)19 TN = 2,5 x 10^-2 N, essai 2, pH 6,97, β 0,135",62-64 microgrammes/ml
same,progestérone (microgrammes/ml),"[3]; Example 1, Q-P(TDAE)19 TN = 2,5 x 10^-2 N, essai 3, pH 6,95, β 0,20",48-50 microgrammes/ml
same,progestérone (microgrammes/ml),"[3]; Example 1, Q-P(TDAE)19 TN = 2,5 x 10^-2 N, essai 4, pH 6,95, β 0,26",38 microgrammes/ml
same,progestérone (microgrammes/ml),"[3]; Example 1, Q-P(TDAE)19 TN = 2,5 x 10^-2 N, essai 5, pH 6,95, β 0,38",26 microgrammes/ml
same,progestérone (microgrammes/ml),"[3]; Example 1, Q-P(TDAE)19 TN = 2,5 x 10^-2 N, essai 6, pH 6,80, β 0,63",14-16 microgrammes/ml
same,progestérone (microgrammes/ml),"[3]; Example 1, Q-P(TDAE)19 TN = 2,5 x 10^-2 N, essai 7, pH 6,55, β 0,75",11-12 microgrammes/ml
same,progestérone (microgrammes/ml),"[3]; Example 1, Q-P(TDAE)19 TN = 2,5 x 10^-2 N, essai 8, pH 6,15, β 0,88",11-12 microgrammes/ml
same,progestérone (microgrammes/ml),"[3]; Example 2, Q-P(TDAE)19 TN = 0,15N, essai 1, pH 7,50, β 0,13",315 microgrammes/ml
same,progestérone (microgrammes/ml),"[3]; Example 2, Q-P(TDAE)19 TN = 0,15N, essai 2, pH 7,50, β 0,17",300 microgrammes/ml
same,progestérone (microgrammes/ml),"[3]; Example 2, Q-P(TDAE)19 TN = 0,15N, essai 3, pH 7,50, β 0,26",225 microgrammes/ml
same,progestérone (microgrammes/ml),"[3]; Example 2, Q-P(TDAE)19 TN = 0,15N, essai 4, pH 7,40, β 0,47",185-190 microgrammes/ml
same,progestérone (microgrammes/ml),"[3]; Example 2, Q-P(TDAE)19 TN = 0,15N, essai 5, pH 7,36, β 0,51",80 microgrammes/ml
same,progestérone (microgrammes/ml),"[3]; Example 2, Q-P(TDAE)19 TN = 0,15N, essai 6, pH 7,25, β 0,58",70 microgrammes/ml
same,progestérone (microgrammes/ml),"[3]; Example 2, Q-P(TDAE)19 TN = 0,15N, essai 7, pH 4,8, β 0,98",10 à 12 microgrammes/ml
same,quantité de progestérone dissoute,"[3]; with NaCl, solution at 0,9X en NaCl (18mg in 2ml)",375 microgrammes par ml de filtrat
same,quantité de progestérone dissoute,[3]; without NaCl,375 microgrammes par ml de filtrat
same,solubilité dans l'eau,"[2]; no polymer, approximate values, no source stated",11 à 12 microgrammes par ml
